Data as given in patent US10711000B2 (Fronthera U.S. Pharmaceuticals LLC, priority 2018, dated 2020).
Where two headings read alike, the source gives them in different places.

Target: T1, Autotaxin (Homo sapiens, UniProt Q13822)
T1 construct: from tissue; host or cells: pooled human plasma
Assay: LPA formation in pooled human plasma (ex vivo autotaxin inhibition)
Format: biochemical
Settings: 2 hours incubation
Method in brief: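 Pooled human plasma incubated 2 h with various compound concentrations; LPA 18:2 and 20:4 quantified by LC/MS/MS (negative-ion MRM, LPA17:0 internal standard) after butanol extraction. Inhibition of LPA formation relative to untreated plasma; IC50 by non-linear regression.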

[1] = LPA 18:2 by LC/MS/MS, read-out: LPA formation (18:2) (IC50)
[2] = LPA 20:4 by LC/MS/MS, read-out: LPA formation (20:4) (IC50)

Cc1cc(N2CC3(CN(C(=O)C4CCN(C)C4)C3)C2)cc2c(N(C)c3nc(-c4ccc(F)cc4)c(C#N)s3)c(C3CC3)nn12 (centres unmarked) [Example 85, 2-((2-cyclopropyl-7-methyl-5-(6-(1-methylpyrrolidine-3-carbonyl)-2,6-diazaspiro[3.3]heptan-2-yl)pyrazolo[1,5-a]pyridin-3-yl)(methyl)amino)-4-(4-fluorophenyl)thiazole-5-carbonitrile]
IC50 [1]: 100 to 500 nM
IC50 [2]: 100 to 500 nM

Cc1cc(N2CCC3(CN(C(=O)[C@H]4CCOC4)C3)C2)cc2c(N(C)c3nc(-c4ccc(F)cc4)c(C#N)s3)c(C3CC3)nn12 [Example 86, (S)-2-((2-cyclopropyl-7-methyl-5-(2-(tetrahydrofuran-3-carbonyl)-2,6-diazaspiro[3.4]octan-6-yl)pyrazolo[1,5-a]pyridin-3-yl)(methyl)amino)-4-(4-fluorophenyl)thiazole-5-carbonitrile]
IC50 [1]: ≤ 100 nM
IC50 [2]: ≤ 100 nM

Cc1cc(N2CC(O)C2)cc2c(N(C)c3nc(-c4ccc(F)cc4)c(C#N)s3)c(C3CC3)nn12 [Example 87, 2-[[2-cyclopropyl-5-(3-hydroxyazetidin-1-yl)-7-methyl-pyrazolo[1,5-a]pyridin-3-yl]-methyl-amino]-4-(4-fluorophenyl)thiazole-5-carbonitrile]
IC50 [1]: > 1000 nM
IC50 [2]: > 1000 nM

Cc1cc(N2CC(C#N)C2)cc2c(N(C)c3nc(-c4ccc(F)cc4)c(C#N)s3)c(C3CC3)nn12 [Example 88, 2-[[5-(3-cyanoazetidin-1-yl)-2-cyclopropyl-7-methyl-pyrazolo[1,5-a]pyridin-3-yl]-methyl-amino]-4-(4-fluorophenyl)thiazole-5-carbonitrile]
IC50 [1]: > 1000 nM
IC50 [2]: > 1000 nM

Cc1cc(N2CC3(CN(C(=O)C4(O)CCOCC4)C3)C2)cc2c(N(C)c3nc(-c4ccc(F)cc4)c(C#N)s3)c(C3CC3)nn12 [Example 90, 2-((2-cyclopropyl-5-(6-(4-hydroxytetrahydro-2H-pyran-4-carbonyl)-2,6-diazaspiro[3.3]heptan-2-yl)-7-methylpyrazolo[1,5-a]pyridin-3-yl)(methyl)amino)-4-(4-fluorophenyl)thiazole-5-carbonitrile]
IC50 [1]: ≤ 100 nM
IC50 [2]: ≤ 100 nM

Cc1cc(N2CC3(CN(C(=O)C45CC(C4)C5)C3)C2)cc2c(N(C)c3nc(-c4ccc(F)cc4)c(C#N)s3)c(C3CC3)nn12 [Example 91, 2-((5-(6-(bicyclo[1.1.1]pentane-1-carbonyl)-2,6-diazaspiro[3.3]heptan-2-yl)-2-cyclopropyl-7-methylpyrazolo[1,5-a]pyridin-3-yl)(methyl)amino)-4-(4-fluorophenyl)thiazole-5-carbonitrile]
IC50 [1]: 100 to 500 nM
IC50 [2]: 100 to 500 nM

Cc1cc(N2CCN(C3COCC3O)CC2)cc2c(N(C)c3nc(-c4ccc(F)cc4)c(C#N)s3)c(C3CC3)nn12 (centres unmarked) [Example 92]
IC50 [1]: 100 to 500 nM
IC50 [2]: 100 to 500 nM

Cc1cc(N2CCC(N3CC(O)C3)CC2)cc2c(N(C)c3nc(-c4ccc(F)cc4)c(C#N)s3)c(C3CC3)nn12 [Example 93, 2-((2-cyclopropyl-5-(4-(3-hydroxyazetidin-1-yl)piperidin-1-yl)-7-methylpyrazolo[1,5-a]pyridin-3-yl)(methyl)amino)-4-(4-fluorophenyl)thiazole-5-carbonitrile]
IC50 [1]: 100 to 500 nM
IC50 [2]: 100 to 500 nM

Cc1cc(N2CCN(C3COC3)CC2)cc2c(N(C)c3nc(-c4ccc(F)cc4)c(C#N)s3)c(C3CC3)nn12 [Example 94, 2-((2-cyclopropyl-7-methyl-5-(4-(oxetan-3-yl)piperazin-1-yl)pyrazolo[1,5-a]pyridin-3-yl)(methyl)amino)-4-(4-fluorophenyl)thiazole-5-carbonitrile]
IC50 [1]: 100 to 500 nM
IC50 [2]: 500 to 1000 nM

CCc1nn2c(C)cc(N3CCN(CC(=O)N4CC(O)C4)CC3)nc2c1N(C)c1nc(-c2ccc(F)cc2)c(C#N)s1 [Example 95, 2-((2-ethyl-5-(4-(2-(3-hydroxyazetidin-1-yl)-2-oxoethyl)piperazin-1-yl)-7-methylpyrazolo[1,5-a]pyrimidin-3-yl)(methyl)amino)-4-(4-fluorophenyl)thiazole-5-carbonitrile]
IC50 [1]: > 1000 nM
IC50 [2]: > 1000 nM

CCc1nn2cc(C)c(N3CCN(CC(=O)N4CC(O)C4)CC3)cc2c1N(C)c1nc(-c2ccc(F)cc2)c(C#N)s1 [Example 96, 2-((2-ethyl-5-(4-(2-(3-hydroxyazetidin-1-yl)-2-oxoethyl)piperazin-1-yl)-6-methylpyrazolo[1,5-a]pyridin-3-yl)(methyl)amino)-4-(4-fluorophenyl)thiazole-5-carbonitrile]
IC50 [1]: ≤ 100 nM
IC50 [2]: ≤ 100 nM

CCc1nn2cc(C)c(N3CC4(CN(C(=O)C(C)(C)O)C4)C3)cc2c1N(C)c1nc(-c2ccc(F)cc2)c(C#N)s1 [Example 98, 2-((2-ethyl-5-(6-(2-hydroxy-2-methylpropanoyl)-2,6-diazaspiro[3.3]heptan-2-yl)-6-methylpyrazolo[1,5-a]pyridin-3-yl)(methyl)amino)-4-(4-fluorophenyl)thiazole-5-carbonitrile]
IC50 [1]: 100 to 500 nM
IC50 [2]: 100 to 500 nM

CCc1nn2cc(C)c(N3CC4(CN(C(=O)C(O)CO)C4)C3)cc2c1N(C)c1nc(-c2ccc(F)cc2)c(C#N)s1 (centres unmarked) [Example 99, 2-((5-(6-(2,3-dihydroxypropanoyl)-2,6-diazaspiro[3.3]heptan-2-yl)-2-ethyl-6-methylpyrazolo[1,5-a]pyridin-3-yl)(methyl)amino)-4-(4-fluorophenyl)thiazole-5-carbonitrile]
IC50 [1]: ≤ 100 nM
IC50 [2]: ≤ 100 nM

Cc1cn2nc(C3CC3)c(N(C)c3nc(-c4ccc(F)cc4)c(C#N)s3)c2cc1N1CCN(CC(=O)N2CC(O)C2)CC1 [Example 100, 2-((2-cyclopropyl-5-(4-(2-(3-hydroxyazetidin-1-yl)-2-oxoethyl)piperazin-1-yl)-6-methylpyrazolo[1,5-a]pyridin-3-yl)(methyl)amino)-4-(4-fluorophenyl)thiazole-5-carbonitrile]
IC50 [1]: ≤ 100 nM
IC50 [2]: ≤ 100 nM

CCc1nn2cc(F)c(N3CC4(CN(C(=O)N5CCN(C)CC5)C4)C3)cc2c1N(C)c1nc(-c2ccc(F)cc2)c(C#N)s1 [Example 105, 2-((2-ethyl-6-fluoro-5-(6-(4-methylpiperazine-1-carbonyl)-2,6-diazaspiro[3.3]heptan-2-yl)pyrazolo[1,5-a]pyridin-3-yl)(methyl)amino)-4-(4-fluorophenyl)thiazole-5-carbonitrile]
IC50 [1]: ≤ 100 nM
IC50 [2]: ≤ 100 nM

CCc1nn2cc(F)c(N3CC4(CN(C(=O)N5CC(O)C5)C4)C3)cc2c1N(C)c1nc(-c2ccc(F)cc2)c(C#N)s1 [Example 107, 2-((2-ethyl-6-fluoro-5-(6-(3-hydroxyazetidine-1-carbonyl)-2,6-diazaspiro[3.3]heptan-2-yl)pyrazolo[1,5-a]pyridin-3-yl)(methyl)amino)-4-(4-fluorophenyl)thiazole-5-carbonitrile]
IC50 [1]: ≤ 100 nM
IC50 [2]: ≤ 100 nM

CCc1nn2cc(F)c(N3CC4(CN(C(=O)N5CCOCC5)C4)C3)cc2c1N(C)c1nc(-c2ccc(F)cc2)c(C#N)s1 [Example 108, 2-((2-ethyl-6-fluoro-5-(6-(morpholine-4-carbonyl)-2,6-diazaspiro[3.3]heptan-2-yl)pyrazolo[1,5-a]pyridin-3-yl)(methyl)amino)-4-(4-fluorophenyl)thiazole-5-carbonitrile]
IC50 [1]: ≤ 100 nM
IC50 [2]: ≤ 100 nM

CCc1nn2cc(F)c(N3CCC4(CC3)CN(C(=O)N3CC(O)C3)C4)cc2c1N(C)c1nc(-c2ccc(F)cc2)c(C#N)s1 [Example 110, 2-((2-ethyl-6-fluoro-5-(2-(3-hydroxyazetidine-1-carbonyl)-2,7-diazaspiro[3.5]nonan-7-yl)pyrazolo[1,5-a]pyridin-3-yl)(methyl)amino)-4-(4-fluorophenyl)thiazole-5-carbonitrile]
IC50 [1]: ≤ 100 nM
IC50 [2]: ≤ 100 nM

CCc1nn2cc(F)c(N3CCC4(CN(C(=O)N5CC(O)C5)C4)C3)cc2c1N(C)c1nc(-c2ccc(F)cc2)c(C#N)s1 [Example 111, 2-((2-ethyl-6-fluoro-5-(2-(3-hydroxyazetidine-1-carbonyl)-2,6-diazaspiro[3.4]octan-6-yl)pyrazolo[1,5-a]pyridin-3-yl)(methyl)amino)-4-(4-fluorophenyl)thiazole-5-carbonitrile]
IC50 [1]: ≤ 100 nM
IC50 [2]: ≤ 100 nM
